For orientation: IC50 means the midpoint of a concentration-inhibition curve. What is called CC50 is the concentration giving 50% cytotoxicity. As a reminder, the EC50 is the concentration at which the effect is half-maximal. Usually Ki stands for the dissociation constant of the complex between target and ligand, obtained from inhibition or displacement.

The structures appear in SMILES notation. Like-named read-outs stand apart in the source and are kept apart here. A value given as a limit tells only on which side of the number the result lay.

This is an account of results in PMC11898053, “Structure-Based Identification of Non-covalent Prolyl Oligopeptidase 80 Inhibitors Targeting Trypanosoma cruzi Cell Entry” (Journal of Chemical Information and Modeling, 2025).

Data set [1] addresses recombinant POPTc80 (Trypanosoma cruzi, UniProt Q4E132). Put plainly: POPTc80 enzyme inhibition and kinetic assay (Suc-GPLGP-AMC fluorogenic substrate). Format: biochemical. The procedure:
The enzyme activity was assessed using the fluorogenic substrate Suc-GPLGP-AMC previously described by Santana et al.[14] A total of 20 ng of pure recombinant POPTc80 was incubated with 20 μM Suc-GPLGP-AMC in a 25 mM HEPES buffer containing 5 mM DTT at pH 7.5. The release of AMC was monitored over a period of 20 min by measuring its emission at 460 nm, following excitation at 355 nm, using a 96-well microplate fluorescence reader (M5, Molecular Devices). The IC50 values were obtained by a series of at least 9 points from 200 to 0.01 μM of the compound, plus the control. The data were subjected to a four-parameter logistic (4 PL) nonlinear regression model using GraphPad Prism 8 software to calculate the IC50. […] Active enzyme concentration was determined by titration with a chloromethyl ketone irreversible inhibitor of POPTc80.[13] All kinetic parameters were determined by nonlinear regression employing the GraphPad Prism enzyme kinetics module and Hanes-Woolf plots.[64]

Data set [2] can be described thus: Cytotoxicity assay (resazurin). To be noted: rat, L6 cells, pH 7.4; 72 h incubation. It counts as cell-based. The method, then:
L6 cells were cultured in 96-well plates at a density of 1 × 10^4 cells/well in 100 μL of RPMI 1640 medium supplemented with 10% heat-inactivated fetal bovine serum (FBS) and 25 mM HEPES pH 7.4, maintained at 37 °C, under a 5% CO2 atmosphere. After 24h, the compounds were diluted, starting at a concentration of 200 μM, in 100 μL of complete culture medium per well. Subsequently, 100 μL of the diluted compounds were added to the seeded cells. After 72 h of incubation, Resazurin solution (Sigma) was added to a final concentration of 20 μM and incubated for another 4h at 37 °C. Fluorescence was then measured at 570 nm (excitation) and 595 nm (emission) using a SpectraMax M5 microplate reader (Molecular Devices, Sunnyvale, CA, USA). The cytotoxic concentrations causing 50% inhibition of cell growth (CC50) were determined from data obtained in two independent experiments and calculated similarly to the EC50, as described above.
For orientation: Alamar Blue is a resazurin reagent that responds to reducing activity.

In data set [3] the test system is T. cruzi strain Y trypomastigotes. As to the kind of experiment: Host cell infection inhibition assay (trypomastigote entry into L6 cells). Format: cell-based, Trypanosoma cruzi. The settings on record: 1 h preincubation, 3 h infection, 72 h culture. The procedure: The assay was performed as previously described by Grellier et al.,[15] with slight modifications. Briefly, L6 cells were seeded in flasks containing RPMI medium supplemented with 5% fetal bovine serum and 1% penicillin/streptomycin (Gibco 15140122) and incubated at 37 °C in a 5% CO2 atmosphere. Trypomastigotes of T. cruzi strain Y were preincubated for 1 h at 37 °C in a culture medium containing different concentrations of inhibitors (0–200 μM, five points). Subsequently, they were added to L6 cell cultures that had been previously grown for 24h in 96-well plates (1000 cells/well) at a trypomastigote-to-host cell ratio of 30:1. After 3 h incubation at 37 °C, the wells were washed three times with inhibitor-free culture medium, and the cells were maintained for 72 h without inhibitors before fixation and staining with panoptic stain. The percentage of infected cells was determined by counting at least 200 host cells under 400-fold magnification. The inhibition of host cell invasion was calculated by comparing the percentage of infected cells in treated wells to that in untreated control wells. The concentration required to inhibit 50% of invasion (EC50) was determined using a nonlinear regression model applied to dose–response curves in GraphPad Prism v.8.

The subject of data set [4] is T. cruzi. Further details: method as in PMID 11598112. The settings on record: phenotypic data; cited from earlier work.
Data set [5] has as its system POPTc80. The settings on record: cited from earlier work.
The mark [6] stands for this setting: 20 μM Suc-GPLGP-AMC, pH 7.5, means ± SD of three replications, read-out: POPTc80 IC50.
[7] abbreviates: Trypanosoma cruzi, L6, inhibition of host cell invasion.
The mark [8] stands for this setting: inhibition of host cell invasion.
[9] abbreviates: four compound and five substrate concentrations, means ± SD of three replications, read-out: POPTc80 Ki.

Sequence of recombinant POPTc80 (Q4E132 entry or part of it): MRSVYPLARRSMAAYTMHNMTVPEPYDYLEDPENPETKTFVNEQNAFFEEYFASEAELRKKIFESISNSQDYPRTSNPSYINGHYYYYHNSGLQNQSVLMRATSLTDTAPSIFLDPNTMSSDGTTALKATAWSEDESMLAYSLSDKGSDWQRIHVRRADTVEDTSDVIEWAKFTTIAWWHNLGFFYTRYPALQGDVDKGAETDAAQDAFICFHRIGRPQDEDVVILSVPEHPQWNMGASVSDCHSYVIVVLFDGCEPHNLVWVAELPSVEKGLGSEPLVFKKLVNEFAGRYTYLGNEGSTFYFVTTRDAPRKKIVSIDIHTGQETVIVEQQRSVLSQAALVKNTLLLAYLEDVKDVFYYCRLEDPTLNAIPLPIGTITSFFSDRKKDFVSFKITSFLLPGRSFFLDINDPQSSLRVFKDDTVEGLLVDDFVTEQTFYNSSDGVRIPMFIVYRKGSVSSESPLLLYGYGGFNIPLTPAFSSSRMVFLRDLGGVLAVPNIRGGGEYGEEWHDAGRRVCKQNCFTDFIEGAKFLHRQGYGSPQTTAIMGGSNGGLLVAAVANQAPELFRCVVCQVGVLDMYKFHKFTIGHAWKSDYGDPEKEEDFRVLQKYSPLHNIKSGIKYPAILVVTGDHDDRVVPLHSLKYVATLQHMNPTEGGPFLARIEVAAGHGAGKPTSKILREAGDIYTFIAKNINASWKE

`O=C(C1CCCN1C(=O)Cn1sc2ccccc2c1=O)N1CCCCC1` (stereo not drawn) [LC-57]: in data set [1] (setting [6]), the IC50 was more than 20 µM.

Take `O=C(C1CCCN1C(=O)CCCc1ccc(Cl)cc1)N1CCOCC1` (stereo not drawn) [LC-55]: the CC50 at 72 h in data set [2] is more than 200 µM. Also, the EC50 was 16.2 µM in data set [3] (setting [7]) and 18.6 ± 3.79 µM in data set [3] (setting [8]). Moreover, the “POPTc80 LE (ligand efficiency)” value in data set [1] is given as 0.35 kcal/mol per heavy atoms. Also, the concentration for half-maximal inhibition (IC50) in data set [1] (setting [6]) was 0.44 ± 0.08 µM. For the same molecule, the Ki in data set [1] (setting [9]) was 0.83 ± 0.11 µM.

For the molecule `Cc1nn(C)c(C)c1CCC(=O)N1CCCC1C(=O)N1CCCCC1` (stereo not drawn) [LC-56], the IC50 in data set [1] (setting [6]) is more than 20 µM.

Consider `O=C(NCCCc1nc2cc(Cl)ccc2[nH]1)C1CCCCN1C(=O)C1CC1` (stereo not drawn) [LC-40], for which the IC50 in data set [1] (setting [6]) is more than 20 µM.

In data set [2], `O=C(NCCc1cscn1)C1CCCCC1C(=O)N1CCCC1` (stereo not drawn) [LC-45] gave a CC50 at 72 h of more than 200 µM. The EC50 in data set [3] (setting [7]) came to 46.7 ± 3.55 µM. Besides, the “POPTc80 LE (ligand efficiency)” value in data set [1] is 0.44 kcal/mol per heavy atoms. The IC50 in data set [1] (setting [6]) was 0.23 ± 0.08 µM. For the same molecule, the Ki in data set [1] (setting [9]) is 0.054 ± 0.006 µM.

`Cn1c(CNC(=O)C2CCCCC2C(=O)N2CCCC2)nc2ccccc21` (stereo not drawn) [LC-53] registered a CC50 at 72 h in data set [2] of more than 200 µM. In addition, the EC50 in data set [3] (setting [7]) stood at 24.9 ± 3.45 µM. In addition, the “POPTc80 LE (ligand efficiency)” value in data set [1] turned out to be 0.35 kcal/mol per heavy atoms. Further, the IC50 in data set [1] (setting [6]) came to 0.27 ± 0.07 µM. For the same molecule, the Ki in data set [1] (setting [9]) was 0.158 ± 0.044 µM.

For `O=C(NCCOc1cccc2cccnc12)C1CCCCC1C(=O)N1CCCC1` (stereo not drawn) [LC-44], the CC50 at 72 h in data set [2] was more than 200 µM. Further, the half-maximal effective concentration (EC50) stood at 92.5 µM in data set [3] (setting [7]) and 92.4 ± 3.74 µM in data set [3] (setting [8]). For the same molecule, the “POPTc80 LE (ligand efficiency)” value in data set [1] was determined as 0.33 kcal/mol per heavy atoms. The IC50 in data set [1] (setting [6]) turned out to be 0.64 ± 0.1 µM. Further, the Ki in data set [1] (setting [9]) was determined as 0.175 ± 0.031 µM.

For the molecule `O=C(NCCc1cnn(-c2ccccc2)c1)C1CCCCN1C(=O)C1CC1` (stereo not drawn) [LC-39], the IC50 in data set [1] (setting [6]) is more than 20 µM.

With `O=C(NCCc1nccs1)C1CCCCN1C(=O)C1CC1` (stereo not drawn) [LC-41], the IC50 in data set [1] (setting [6]) is more than 20 µM.

Regarding `O=C(NCCCc1ccccn1)C1CCCCC1C(=O)N1CCCC1` (stereo not drawn) [LC-46], the CC50 at 72 h in data set [2] was more than 200 µM. The molecule further displayed an EC50 in data set [3] (setting [7]) of 46.6 ± 20.8 µM. In addition, the “POPTc80 LE (ligand efficiency)” value in data set [1] came out at 0.35 kcal/mol per heavy atoms. In addition, the IC50 in data set [1] (setting [6]) amounted to 0.4 ± 0.24 µM. For the same molecule, in data set [1] (setting [9]), the Ki amounted to 0.513 ± 0.218 µM.

On to `Cc1cccc(NC(=O)CC(=O)N2CCCC2C(=O)N2CCOCC2)c1` (stereo not drawn) [LC-54], for which, in data set [1] (setting [6]), the IC50 is more than 20 µM.

`O=C(NCCc1nc2cc(F)ccc2[nH]1)C1CCCCN1C(=O)C1CC1` (stereo not drawn) [LC-42]: the IC50 in data set [1] (setting [6]) is more than 20 µM.

As for `COC(OC)C1CCCN1C(=O)C1CCCN1C(=O)OCc1ccccc1` (stereo not drawn) [ZPPD, Z-P-prolinal dimethylacetal], the EC50 in data set [4] was 250 µM. In addition, in data set [5], the IC50 is 6.7 µM and the Ki is 1.12 ± 0.12 µM. In data set [1], the “POPTc80 LE (ligand efficiency)” value is listed as 0.31 kcal/mol per heavy atoms.

Take `O=C(NCCc1cnccn1)C1CCCCC1C(=O)N1CCCC1` (stereo not drawn) [LC-48]: the IC50 in data set [1] (setting [6]) is 0.95 ± 0.1 µM.

As to `O=C(C1CCCN1C(=O)NCc1cc2ccccc2s1)N1CCOCC1` (stereo not drawn) [LC-50], the CC50 at 72 h in data set [2] is more than 200 µM. In data set [3] (setting [7]), the EC50 came out at 80.2 ± 5.27 µM. Moreover, in data set [1], the IC50 was 0.59 ± 0.19 µM, the Ki was 0.44 ± 0.09 µM and the “POPTc80 LE (ligand efficiency)” value was 0.31 kcal/mol per heavy atoms.

Take `Cc1nc2ccc(CNC(=O)C3CCCCC3C(=O)N3CCCC3)cc2[nH]1` (stereo not drawn) [LC-47]: in data set [1], the “POPTc80 LE (ligand efficiency)” value was found to be 0.30 kcal/mol per heavy atoms. Besides, in data set [1] (read-out: POPTc80 IC50, 20 μM Suc-GPLGP-AMC, pH 7.5, means ± SD of three replications), the IC50 was found to be 1.21 ± 0.32 µM. Besides, the Ki in data set [1] (read-out: POPTc80 Ki, four compound and five substrate concentrations, means ± SD of three replications) came to 1.99 ± 0.26 µM.

Take `Cc1csc(SCC(=O)N2CCCC2C(=O)N2CCOCC2)n1` (stereo not drawn) [LC-49]: the IC50 in data set [1] (setting [6]) was more than 20 µM.
